Holding throughout (type): in vivo
For one assay, the system named is Sorghum halepense. The experiment in a line: Greenhouse pre-emergence herbicidal activity on SORHA. The note with it: 20 DAT. On the procedure: (§1) The test plants have been seeded, separately for each species, in plastic containers in sandy loamy soil containing 5% of organic matter.
(§2) The containers were irrigated gently to promote germination and growth and subsequently covered with transparent plastic hoods until the plants had rooted.
(§3) The plants have been cultivated due to their individual requirements at 10-25° C. and 20-35° C.
(§4) The plants were irrigated due to their necessity.
(§5) The racemic mixture (±)-2-exo-(2-Methylbenzyloxy)-1-methyl-4-isopropyl-7-oxabicyclo[2.2.1]heptane was used as herbicide A and formulated as an emulsifiable concentrate with an active ingredient concentration of 750 g/l.
(§6) Pethoxamid (herbicide B) was used as an emulsifiable concentrate formulation having an active ingredient concentration of 600 g/l.
(§7) In the following experiments, the herbicidal activity for the individual herbicidal compositions (solo and mixture applications) was assessed 20 days after treatment (DAT).
(§8) The evaluation for the damage on undesired weeds caused by the chemical compositions was carried out using a scale from 0 to 100%, compared to the untreated control plants. Here, 0 means no damage and 100 means complete destruction of the plants. […]

A further assay relates to Avena fatua. Kind of assay: Greenhouse pre-emergence herbicidal activity on AVEFA. The conditions noted are these: 20 DAT; for herbicidal activity (%): herbicide A solo. How it is done: as §1, §2, §3, §4, §5, §6, §7
(§9) The evaluation for the damage on undesired weeds caused by the chemical compositions was carried out using a scale from 0 to 100%, compared to the untreated control plants. Here, 0 means no damage and 100 means complete destruction of the plants.
(§10) E=X+Y−(X·Y/100) where • X=effect in percent using herbicide A at an application rate a; • Y=effect in percent using herbicide B at application rate b; • E=expected effect (in %) of herbicide A+herbicide B at application rates a+b.
(§11) The value E corresponds to the effect (plant damage or injury) which is to be expected if the activity of the individual compounds is additive.
(§12) Table 1 below relates to the herbicidal activity, in greenhouse trials, of the individual actives and the combinations applied at different rates and ratios, in pre-emergence application at 20 days after treatment (DAT).

The next assay has as its system Abutilon theophrasti. The experiment in a line: Greenhouse pre-emergence herbicidal activity on ABUTH. The note with it: 20 DAT. On the procedure: as §1, §2, §3, §4, §5, §6, §7, §8
A further assay deals with Lolium multiflorum. Kind of assay: Greenhouse pre-emergence herbicidal activity on LOLMU. The conditions noted are these: 20 DAT. How it is done:
as §1, §2, §3, §4, §5, §6, §7, §8

Another assay has as its system Anthemis arvensis. The experiment in a line: Greenhouse pre-emergence herbicidal activity on ANTAR. The note with it: 20 DAT; for herbicidal activity (%): herbicide A solo. How it is done:
as §1, §2, §3, §4, §5, §6, §7, §9, §10, §11, §12

Another assay deals with Alopecurus myosuroides. The experiment in a line: Greenhouse pre-emergence herbicidal activity on ALOMY. The conditions noted are these: 20 DAT. How it is done:
as §1, §2, §3, §4, §5, §6, §7, §8

For a further assay, the system named is Polygonum convolvulus. The experiment in a line: Greenhouse pre-emergence herbicidal activity on POLCO. The note with it: 20 DAT; for herbicidal activity (%): herbicide A solo. On the procedure: as §1, §2, §3, §4, §5, §6, §7, §9, §10, §11, §12
The next assay concerns Brassica napus. The experiment in a line: Greenhouse pre-emergence herbicidal activity on BRSNW. The conditions noted are these: 20 DAT. How it is done:
as §1, §2, §3, §4, §5, §6, §7, §8

Another assay has as its system Setaria viridis. Kind of assay: Greenhouse pre-emergence herbicidal activity on SETVI. The conditions noted are these: 20 DAT. How it is done: as §1, §2, §3, §4, §5, §6, §7, §8
The test system of a further assay is Chenopodium album. Kind of assay: Greenhouse pre-emergence herbicidal activity on CHEAL. The conditions noted are these: 20 DAT. How it is done: as §1, §2, §3, §4, §5, §6, §7, §8
The mark [1] stands for this setting: herbicide A solo, 31.25 g ai/ha.

Usually inhibition stands for the change of the read-out against control, counted positive when it falls. Regarding `CCOCCN(C(=O)CCl)C(=C(C)C)c1ccccc1` [pethoxamid, 2-chloro-N-(2-ethoxyethyl)-N-(2-methyl-1-phenylprop-1-enyl)acetamide], the inhibition at 125 g/ha stood at 85% in the assay with Sorghum halepense (Sorghum halepense, 480 h, pethoxamid solo, 125 g ai/ha); 40% in the assay on Avena fatua (Avena fatua, 480 h, pethoxamid solo, 125 g ai/ha); 60% in the assay with Anthemis arvensis (Anthemis arvensis, 480 h, pethoxamid solo, 125 g ai/ha); 35% in the assay on Alopecurus myosuroides (Alopecurus myosuroides, 480 h, pethoxamid solo, 125 g ai/ha); 15% in the assay on Polygonum convolvulus (Fallopia convolvulus, 480 h, pethoxamid solo, 125 g ai/ha). Moreover, the inhibition at 250 g/ha stood at 40% with Avena fatua (Avena fatua, 480 h, pethoxamid solo, 250 g ai/ha) and 15% in the assay with Polygonum convolvulus (Fallopia convolvulus, 480 h, pethoxamid solo, 250 g ai/ha). The inhibition at 500 g/ha with Avena fatua (Avena fatua, 480 h, pethoxamid solo, 500 g ai/ha) amounted to 50%; in the assay with Polygonum convolvulus (Fallopia convolvulus, 480 h, pethoxamid solo, 500 g ai/ha), 30%; with Brassica napus (Brassica napus, 480 h, pethoxamid solo, 500 g ai/ha) it was 0%. Besides, the inhibition at 62.5 g/ha with Abutilon theophrasti (Abutilon theophrasti, 480 h, pethoxamid solo, 62.5 g ai/ha) was 20%; in the assay with Lolium multiflorum (Lolium multiflorum, 480 h, pethoxamid solo, 62.5 g ai/ha), 50%; in the assay with Anthemis arvensis (Anthemis arvensis, 480 h, pethoxamid solo, 62.5 g ai/ha), 20%; in the assay with Setaria viridis (Setaria viridis, 480 h, pethoxamid solo, 62.5 g ai/ha) it was 80%; with Chenopodium album (Chenopodium album, 480 h, pethoxamid solo, 62.5 g ai/ha), 40%.
“(±)-2-exo-(2-Methylbenzyloxy)-1-methyl-4-isopropyl-7-oxabicyclo[2.2.1]heptane [herbicide A]”: the “herbicidal activity (%)” value is listed as 80% in the assay on Sorghum halepense (herbicide A solo, 62.5 g ai/ha); 0% with Avena fatua (62.5 g ai/ha); 25% in the assay with Avena fatua (125 g ai/ha); 35% in the assay on Avena fatua (250 g ai/ha); 30% with Abutilon theophrasti (setting [1]); 60% with Lolium multiflorum (setting [1]). For the same compound, the “herbicidal activity (%)” value in the assay with Anthemis arvensis (31.25 g ai/ha) turned out to be 0%; in the assay on Anthemis arvensis (62.5 g ai/ha), 0%; in the assay with Alopecurus myosuroides (herbicide A solo, 62.5 g ai/ha) it was 98%; with Polygonum convolvulus (62.5 g ai/ha) it was 0%; in the assay with Polygonum convolvulus (125 g ai/ha), 0%; in the assay with Polygonum convolvulus (250 g ai/ha) it was 15%. Moreover, the “herbicidal activity (%)” value in the assay on Brassica napus (herbicide A solo, 250 g ai/ha) is on record as 0%; in the assay on Setaria viridis (setting [1]), 90%; with Chenopodium album (setting [1]), 40%.

Source of the values: US11116213B2, “Herbicidal composition comprising cinmethylin and pethoxamid” (BASF Agro B.V., priority 2015, dated 2021).
